Patent US20240041050A1, “CELL PENETRATING PEPTIDE MEDIATED RNA TRANSDUCTION WITHIN INSECT CELLS” (PIONEER HI-BRED INTERNATIONAL, INC., priority 2020, published 2024)
Peptide text beside a SMILES is read from it.

Test system: DvWL2 cells
Assay: CPP-mediated delivery of mCherry mRNA cargo into insect cells
Type: cell-based, Diabrotica virgifera virgifera
Conditions: complex of 75 μM unlabeled CPP and 10 μg mCherry mRNA, overnight
Source text: Sample preparation and analysis methods were based on those previously reported (Jafari et al. (201 4) “Serum stability and physicochemical characterization of a novel amphipathic peptide C6M 1 for siRNA delivery”, PLoS One, 9(5), e97797; and Gillet et al. (2017) “Investigating Engineered Ribonucleoprotein Particles to Improve Oral RNAi Delivery in Crop Insect Pests”, Frontiers in Physiology, 8(256), doi: 10.3389/fphys.2017.00256). Reagents are described in Examples 1 and 2. Nanocomplex samples were prepared in one of several ways, depending on type of CPP, RNA, or assay. […] Reaction volumes added to cells were 6.38 μL CPP and 6.38 μL mRNA. Final optimal CPP concentration was assessed by amount of fluorescent signal apparent within cells. For insect cell-based assays with CPP-YFP·Cy3-dsRNA or CPP·dsRNA, first a complex formation solution was prepared in molecular biology-grade water containing 90 mg·mL^−1 maltose, 9 mg·mL^−1 mannitol, 392. 16 mM CaCI2, pH 7.0, and vacuum-filtered using Corning™ Disposable Vacuum Filter and Storage System containing a cellulose nitrate filter. Then, increasing amounts of CPP-YFP were added to Cy3-dsRNA, from a molar ratio (CPP-YFP:Cy3-dsRNA) of 1:4 through 8:1 and incubated protected from light at 25° C. for 90 minutes prior to assessment via gel shift and DLS. Reaction volumes added per cell well were comprised of 17 μL reaction solution, 1 μL CPP, 1 μL dsRNA, and 1 μL molecular biology grade water; reaction sizes for larger total volumes were increased in increments of 20 μL and component ratio was held constant to maintain an ionic strength of […]. Final optimal molar ratio selected for cell experiments were determined by increase of the apparent size of the Cy3-dsRNA band on a native agarose gel (FIG. 2A and FIG. 2B), and/or appearance and increase in size of the complex peak detected by a Zetasizer Ultra (Malvern Panalytical, Malvern, United Kingdom) DLS instrument (FIG. 2C). […] Final optimal BAPC1 concentration was assessed by amount of fluorescent signal apparent within cells. […]

## N=C(N)NCCC[C@H](NC(=O)[C@H](Cc1c[nH]c2ccccc12)NC(=O)[C@H](CCCNC(=N)N)NC(=O)[C@@H](N)CS)C(=O)N[C@@H](Cc1c[nH]c2ccccc12)C(=O)N[C@@H](CCCCN)C(=O)N[C@@H](CS)C(=O)N[C@@H](CS)C(=O)N[C@@H](CCCCN)C(=O)N[C@@H](CCCCN)C(=O)O [CyLoP-1, CRWRWKCCKK] (H-CRWRWKCCKK-OH; N-terminus and C-terminus assumed)
  fluorescent protein translated from delivered mCherry mRNA (fluorescent signal inside cells): Translation of mRNA into a functional fluorescent protein occurred
